Source: US20230373985A1 (Origenis Gmbh, priority 2020, published 2023)

What was measured:
[1] = target: T1, wt human TYK2, catalytic site (Homo sapiens, UniProt P29597); test: HTRF KinEASE assay, TYK2; type: biochemical; conditions: 1 μM ATP; read-out: IC50, Activity Toward TYK2
T1 construct: wt human TYK2, catalytic site; purchased SignalChem
T1 sequence (P29597 897-1176 limits assumed): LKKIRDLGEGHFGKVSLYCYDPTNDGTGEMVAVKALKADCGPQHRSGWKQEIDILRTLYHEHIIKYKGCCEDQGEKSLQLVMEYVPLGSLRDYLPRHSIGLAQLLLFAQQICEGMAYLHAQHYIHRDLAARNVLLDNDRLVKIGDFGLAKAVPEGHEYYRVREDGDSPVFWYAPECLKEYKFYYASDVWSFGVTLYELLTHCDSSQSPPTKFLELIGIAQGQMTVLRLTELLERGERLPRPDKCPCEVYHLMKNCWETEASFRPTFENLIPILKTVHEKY
Procedure, shortened: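 Kinase reaction run at room temperature for at least 30 min: 2 nM TYK2 with 1 μM ATP, or 1 nM JAK2 with 100 μM ATP, each with 1 μM biotin-TK substrate. Phosphorylation detected by HTRF (60 min antibody/XL665) and evaluated from emission ratios.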

[2] = target: T2, wt human LRRK2, catalytic site (Homo sapiens, UniProt Q5S007); test: TR-FRET LanthaScreen Eu Kinase Binding Assay, LRRK2 wt; conditions: one range stated for wt and G2019, read-out: IC50, Activity Toward LRRK2(Wt)
T2 construct: 5 nM wt human LRRK2, catalytic site; purchased ThermoFisher
Protocol: (§1) The basic protocol for TR-FRET LanthaScreen Eu Kinase Binding Assay inhibitor studies were performed as follows. LanthaScreen Kinase Binding Assays (ThermoFisher/USA) to evaluate inhibitors were performed by addition of 5 μL of test compound in corresponding DMSO dilutions/5 μl of kinase/antibody mixture, 5 μL of tracer into 384 well small volume plates. After incubation for 1 hour at room temperature, plates were read. Data analysis of emission ratios was according LanthaScreen Eu Kinase Binding Assay protocol.
(§2) Kinase and assay components were adjusted to final concentrations according to kit protocol. For LRRK2: 5 nM wt human LRRK2, catalytic site, or G2019S human LRRK2, catalytic site (ThermoFisher/USA), 2 nM Eu-Anti-GST Antibody, 10 nM Kinase Tracer 236 in 1× Kinase Buffer A. For NUAK1: 8 nM wt human NUAK1, full length (ThermoFisher/USA), 2 nM Eu-Anti-His Antibody, 5 nM Kinase Tracer 236 in 1× Kinase Buffer A.

[3] = target: T3, G2019S human LRRK2, catalytic site (Homo sapiens, UniProt Q5S007, G2019S); test: TR-FRET LanthaScreen Eu Kinase Binding Assay, LRRK2 G2019S; conditions: LRRK2(G2019); one range stated for wt and G2019; read-out: IC50, Activity Toward LRRK2(G2019)
T3 construct: G2019S human LRRK2, catalytic site; purchased ThermoFisher
Protocol: as §1, §2

[4] = target: T4, wt human JAK1, catalytic site (Homo sapiens, UniProt P23458); test: HTRF KinEASE assay, JAK1; type: biochemical; conditions: 2.5 μM ATP; read-out: IC50, Activity Toward JAK1
T4 construct: wt human JAK1, catalytic site; purchased ThermoFisher
Procedure, shortened: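 Compounds in DMSO dilution were mixed with kinase, biotin-TK substrate and ATP and reacted for ≥30 min at room temperature. Detection reagents (antibody, streptavidin-XL665) were read 60 min later as HTRF, with emission ratios analysed per KinEASE protocol.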

T4 sequence (P23458 875-1153 limits assumed): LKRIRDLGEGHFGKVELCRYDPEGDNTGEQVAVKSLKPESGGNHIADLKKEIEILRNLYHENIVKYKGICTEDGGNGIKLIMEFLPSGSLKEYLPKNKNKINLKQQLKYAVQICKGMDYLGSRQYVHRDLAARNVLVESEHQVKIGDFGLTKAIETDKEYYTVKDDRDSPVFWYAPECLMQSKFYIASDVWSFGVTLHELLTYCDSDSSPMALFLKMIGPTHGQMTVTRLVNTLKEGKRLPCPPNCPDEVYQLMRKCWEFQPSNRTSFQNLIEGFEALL
T2 sequence (Q5S007 970-2527 limits assumed): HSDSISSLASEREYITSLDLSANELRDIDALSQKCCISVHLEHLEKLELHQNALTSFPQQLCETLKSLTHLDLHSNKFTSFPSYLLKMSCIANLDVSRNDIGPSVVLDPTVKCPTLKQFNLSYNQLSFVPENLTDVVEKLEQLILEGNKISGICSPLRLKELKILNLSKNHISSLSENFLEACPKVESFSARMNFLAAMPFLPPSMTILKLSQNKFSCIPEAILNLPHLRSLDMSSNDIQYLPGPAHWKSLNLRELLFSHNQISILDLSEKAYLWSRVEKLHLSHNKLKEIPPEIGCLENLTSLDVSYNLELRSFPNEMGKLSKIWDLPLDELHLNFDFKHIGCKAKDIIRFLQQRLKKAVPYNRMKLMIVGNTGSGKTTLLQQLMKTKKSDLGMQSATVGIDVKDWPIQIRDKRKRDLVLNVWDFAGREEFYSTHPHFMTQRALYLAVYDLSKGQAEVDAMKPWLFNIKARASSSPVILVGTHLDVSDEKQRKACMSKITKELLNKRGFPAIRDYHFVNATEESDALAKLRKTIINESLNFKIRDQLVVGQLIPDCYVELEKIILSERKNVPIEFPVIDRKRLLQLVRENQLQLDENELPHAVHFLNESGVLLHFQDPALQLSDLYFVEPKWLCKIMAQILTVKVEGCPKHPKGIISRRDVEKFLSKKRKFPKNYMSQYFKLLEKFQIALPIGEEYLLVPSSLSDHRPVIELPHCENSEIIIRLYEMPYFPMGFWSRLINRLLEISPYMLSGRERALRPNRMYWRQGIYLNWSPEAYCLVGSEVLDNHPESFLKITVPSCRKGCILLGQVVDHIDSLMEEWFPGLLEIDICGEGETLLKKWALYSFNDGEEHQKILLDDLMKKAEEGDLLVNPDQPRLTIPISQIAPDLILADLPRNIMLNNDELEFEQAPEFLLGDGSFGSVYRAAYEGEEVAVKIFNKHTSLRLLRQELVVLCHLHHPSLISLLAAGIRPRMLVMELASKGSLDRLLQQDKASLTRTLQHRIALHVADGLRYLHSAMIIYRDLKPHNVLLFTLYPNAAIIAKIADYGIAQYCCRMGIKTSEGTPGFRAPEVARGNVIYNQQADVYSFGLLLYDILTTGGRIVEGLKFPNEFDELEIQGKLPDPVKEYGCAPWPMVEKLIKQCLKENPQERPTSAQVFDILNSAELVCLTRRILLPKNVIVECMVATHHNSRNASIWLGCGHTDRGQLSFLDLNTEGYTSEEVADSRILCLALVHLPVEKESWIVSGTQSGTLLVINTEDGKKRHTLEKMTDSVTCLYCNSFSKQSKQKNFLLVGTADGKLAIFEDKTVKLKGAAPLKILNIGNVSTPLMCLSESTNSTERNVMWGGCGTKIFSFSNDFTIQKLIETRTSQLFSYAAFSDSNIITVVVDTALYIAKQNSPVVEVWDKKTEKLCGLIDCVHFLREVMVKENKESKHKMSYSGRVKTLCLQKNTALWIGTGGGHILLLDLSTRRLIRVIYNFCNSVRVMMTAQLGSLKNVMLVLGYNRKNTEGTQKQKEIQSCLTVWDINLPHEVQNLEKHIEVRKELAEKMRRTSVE
T3 sequence (Q5S007 970-2527 G2019S limits assumed): as the sequence (Q5S007 970-2527 limits assumed) above, with G1050S counted along it

SMILES | IC50 [1] | IC50 [2] | IC50 [3] | IC50 [4]
NC(=O)c1nn(-c2c(Cl)cccc2Cl)cc1Nc1ccc(-c2nnc3n2CCCCC3)cc1 [compound 63, 1-(2,6-dichlorophenyl)-4-((4-(6,7,8,9-tetrahydro-5H-[1,2,4]triazolo[4,3-a]azepin-3-yl)phenyl)amino)-1H-pyrazole-3-carboxamide] | 10 to 100 nM | 10 to 100 nM | 10 to 100 nM | 100 to 1000 nM
NC(=O)c1nn(-c2c(Cl)cccc2Cl)cc1Nc1ccc(C(=O)N2CCN(CC(F)F)CC2)cc1 [compound 83, 1-(2,6-dichlorophenyl)-4-((4-(4-(2,2-difluoroethyl)piperazine-1-carbonyl)phenyl)amino)-1H-pyrazole-3-carboxamide] | < 10 nM | 100 to 1000 nM | 100 to 1000 nM | 100 to 1000 nM
N#Cc1ccnnc1-c1ccc(Nc2cn(-c3c(Cl)cccc3Cl)nc2C(N)=O)cc1 [compound 60, 4-((4-(4-cyanopyridazin-3-yl)phenyl)amino)-1-(2,6-dichlorophenyl)-1H-pyrazole-3-carboxamide] | 10 to 100 nM | 100 to 1000 nM | 100 to 1000 nM | 10 to 100 nM
CCc1cncnc1-c1ccc(Nc2cn(-c3c(Cl)cccc3Cl)nc2C(N)=O)cc1 [compound 52, 1-(2,6-dichlorophenyl)-4-((4-(5-ethylpyrimidin-4-yl)phenyl)amino)-1H-pyrazole-3-carboxamide] | 10 to 100 nM | 100 to 1000 nM | 100 to 1000 nM | 100 to 1000 nM
CC(C)(C)C(=O)c1ccc(Nc2cn(-c3c(F)cccc3Cl)nc2C(N)=O)cc1 [compound 42, 1-(2-chloro-6-fluorophenyl)-4-((4-pivaloylphenyl)amino)-1H-pyrazole-3-carboxamide] | < 10 nM | 100 to 1000 nM | 100 to 1000 nM | < 10 nM
N#Cc1cccnc1-c1ccc(Nc2cn(-c3c(Cl)cccc3Cl)nc2C(N)=O)cc1 [compound 59, 4-((4-(3-cyanopyridin-2-yl)phenyl)amino)-1-(2,6-dichlorophenyl)-1H-pyrazole-3-carboxamide] | 100 to 1000 nM | 100 to 1000 nM | 100 to 1000 nM | 10 to 100 nM
CCn1ncnc1-c1ccc(Nc2cn(-c3c(Cl)cccc3Cl)nc2C(N)=O)cc1 [compound 47, 1-(2,6-dichlorophenyl)-4-((4-(1-ethyl-1H-1,2,4-triazol-5-yl)phenyl)amino)-1H-pyrazole-3-carboxamide] | 10 to 100 nM | 100 to 1000 nM | 100 to 1000 nM | 100 to 1000 nM
CC(C)(C)NC(=O)c1ccc(Nc2cn(-c3c(Cl)cccc3Cl)nc2C(N)=O)cc1 [compound 26, 4-((4-(tert-butylcarbamoyl)phenyl)amino)-1-(2,6-dichlorophenyl)-1H-pyrazole-3-carboxamide] | 10 to 100 nM | 100 to 1000 nM | 100 to 1000 nM | 10 to 100 nM
Cc1c[n+]([O-])ccc1-c1ccc(Nc2cn(-c3c(Cl)cccc3Cl)nc2C(N)=O)cc1 [compound 267, 4-(4-((3-carbamoyl-1-(2,6-dichlorophenyl)-1H-pyrazol-4-yl)amino)phenyl)-3-methylpridine_1-oxide] | 10 to 100 nM | 100 to 1000 nM | 100 to 1000 nM | 10 to 100 nM
NC(=O)c1nn(-c2c(Cl)cccc2Cl)cc1Nc1ccc(C(=O)N2CCN(C3CC3)CC2)cc1 [compound 84, 4-((4-(4-cyclopropylpiperazine-1-carbonyl)phenyl)amino)-1-(2,6-dichlorophenyl)-1H-pyrazole-3-carboxamide] | < 10 nM | 100 to 1000 nM | 100 to 1000 nM | 10 to 100 nM
NC(=O)c1nn(-c2c(Cl)cccc2Cl)cc1Nc1ccc(-n2ncc3c2CCOC3)cc1 [compound 70, 1-(2,6-dichlorophenyl)-4-((4-(6,7-dihydropyrano[4,3-c]pyrazol-1(4H)-yl)phenyl)amino)-1H-pyrazole-3-carboxamide] | 10 to 100 nM | 100 to 1000 nM | 100 to 1000 nM | 100 to 1000 nM
Cc1ccnnc1-c1ccc(Nc2cn(-c3c(Cl)cccc3Cl)nc2C(N)=O)cc1 [compound 45, 1-(2,6-dichlorophenyl)-4-((4-(4-methylpyridazin-3-yl)phenyl)amino)-1H-pyrazole-3-carboxamide] | < 10 nM | 10 to 100 nM | 10 to 100 nM | 100 to 1000 nM

The remaining lines, values ahead:

IC50 [1] | IC50 [2] | IC50 [3] | IC50 [4] | SMILES
< 10 nM | 100 to 1000 nM | 100 to 1000 nM | 10 to 100 nM | NC(=O)c1nn(-c2c(Cl)cccc2Cl)cc1Nc1ccc(-c2nncn2/C=C/F)cc1 [compound 415, (E)-1-(2,6-dichlorophenyl)-4-((4-(4-(2-fluorovinyl)-4H-1,2,4-triazol-3-yl)phenyl)amino)-1H-pyrazole-3-carboxamide]
10 to 100 nM | 10 to 100 nM | 10 to 100 nM | 100 to 1000 nM | CCn1cc(C(F)(F)F)nc1-c1ccc(Nc2cn(-c3c(F)cccc3F)nc2C(N)=O)cc1 [compound 304, 1-(2,6-difluorophenyl)-4-((4-(1-ethyl-4-(trifluoromethyl)-1H-imidazol-2-yl)phenyl)amino)-1H-pyrazole-3-carboxamide]
< 10 nM | 100 to 1000 nM | 100 to 1000 nM | 10 to 100 nM | NC(=O)c1nn(-c2c(Cl)cccc2Cl)cc1Nc1ccc(C(=O)N2CC[C@@H](F)C2)cc1 [compound 315, (R)-1-(2,6-dichlorophenyl)-4-((4-(3-fluoropyrrolidine-1-carbonyl)phenyl)amino)-1H-pyrazole-3-carboxamide]
100 to 1000 nM | 100 to 1000 nM | 100 to 1000 nM | 100 to 1000 nM | Cc1cccnc1-c1ccc(Nc2cn(-c3c(Cl)cccc3Cl)nc2C(N)=O)cn1 [compound 395, 1-(2,6-dichlorophenyl)-4-((3′-methyl-[2,2′-bipyridin]-5-yl)amino)-1H-pyrazole-3-carboxamide]
10 to 100 nM | 100 to 1000 nM | 100 to 1000 nM | 10 to 100 nM | CCn1cc(C(F)(F)F)nc1-c1ccc(Nc2cn(-c3c(F)cccc3Cl)nc2C(N)=O)cc1 [compound 303, 1-(2-chloro-6-fluorophenyl)-4-((4-(1-ethyl-4-(trifluoromethyl)-1H-imidazol-2-yl)phenyl)amino)-1H-pyrazole-3-carboxamide]
10 to 100 nM | 100 to 1000 nM | 100 to 1000 nM | 10 to 100 nM | NC(=O)c1nn(-c2c(Cl)cccc2Cl)cc1Nc1cnn(-c2ncccc2F)c1 [compound 386, 1-(2,6-dichlorophenyl)-4-((1-(3-fluoropyridin-2-yl)-1H-pyrazol-4-yl)amino)-1H-pyrazole-3-carboxamide]
< 10 nM | 100 to 1000 nM | 100 to 1000 nM | 10 to 100 nM | N#Cc1cccc(F)c1-n1cc(Nc2ccc(C(=O)N3CC[C@@H](F)C3)cc2)c(C(N)=O)n1 [compound 450, (R)-1-(2-cyano-6-fluorophenyl)-4-((4-(3-fluoropyrrolidine-1-carbonyl)phenyl)amino)-1H-pyrazole-3-carboxamide]
10 to 100 nM | 100 to 1000 nM | 100 to 1000 nM | 10 to 100 nM | NC(=O)c1nn(-c2c(Cl)cccc2Cl)cc1Nc1ccc(-c2nnc3cncc(C(F)(F)F)n23)nc1 [compound 472, 1-(2,6-dichlorophenyl)-4-((6-(5-(trifluoromethyl)-[1,2,4]triazolo[4,3-a]pyrazin-3-yl)pyridin-3-yl)amino)-1H-pyrazole-3-carboxamide]
